According to the NIST ThermoML archive (doi:10.1007/s10765-013-1546-4):

Conditions: Liquid; for viscosity: Vibrating wire viscometry; for vapor or sublimation pressure: Closed cell (Static) method

CCF [fluoroethane]
viscosity [mPa·s]
Conditions	5000 kPa	10000 kPa	15000 kPa	20000 kPa	25000 kPa	30000 kPa
243.17 K	0.232	0.2433	0.2538	0.2643	0.2748	0.285
253.16 K	0.2037	0.2128	0.2214	0.2315	0.2396	0.2489
263.17 K	0.1834	0.1926	0.2012	0.2097	0.2177	0.2262
273.15 K	0.1642	0.1729	0.1812	0.1894	0.1971	0.205
283.15 K	0.147	0.1553	0.1637	0.1713	0.1794	0.1868
293.15 K	0.1322	0.1406	0.1489	0.1566	0.1642	0.1717
303.15 K	0.1196	0.1279	0.136	0.1437	0.1512	0.1584
313.14 K	0.1078	0.1164	0.1242	0.132	0.1393	0.1468
323.16 K	0.0968	0.1054	0.1134	0.1209	0.1282	0.1356
333.16 K	0.0866	0.0958	0.1039	0.1113	0.1181	0.1247
343.16 K	0.0766	0.0866	0.0953	0.1027	0.1094	0.1159
353.16 K	0.0666	0.0782	0.0871	0.0946	0.1014	0.108
363.16 K	0.0562	0.0699	0.0796	0.0873	0.0943	0.1005

Conditions	vapor or sublimation pressure [kPa]	viscosity [mPa·s]
243.17 K	140	0.2238
253.16 K	210	0.1961
263.17 K	310	0.175
273.15 K	440	0.1565
283.15 K	600	0.1395
293.15 K	810	0.1247
303.15 K	1060	0.1122
313.14 K	1360	0.1003
323.16 K	1730	0.0902
333.16 K	2170	0.0803
343.16 K	2680	0.0708
353.16 K	3280	0.0614
363.16 K	3990	0.0514
